For test [1], the system named is Rattus norvegicus. Nature of the test: Antihyperlipidemic activity in Wistar albino rat streptozotocin-induced diabetic model assessed as reduction of serum VLDL-cholesterol level at 20 mg/kg, po qd for 30 days. Format: functional, organism-based. Further details: dose 20 mg/kg.
Test [2] relates to Rattus norvegicus. As to the kind of experiment: Antihyperglycemic activity in Wistar albino rat streptozotocin-induced diabetic model assessed as reduction of blood glucose level at 20 mg/kg, po after 4 hrs (reference value: 373.5 +/- 15.6 mg/dl). Format: functional.
Test [3] has as its system Rattus norvegicus. Nature of the test: Antihyperlipidemic activity in Wistar albino rat streptozotocin-induced diabetic model assessed as reduction of serum LDL level at 20 mg/kg, po qd for 30 days. In kind it is functional, organism-based. Further details: dose 20 mg/kg.
Test [4] has as its system Rattus norvegicus. As to the kind of experiment: Antihyperglycemic activity in Wistar albino rat streptozotocin-induced diabetic model assessed as reduction of blood glucose level at 20 mg/kg, po after 3 hrs (reference value: 384.33 +/- 17.33 mg/dl). In kind it is functional.
Test [5] concerns Rattus norvegicus. Nature of the test: Antiatherosclerosis activity in Wistar albino rat streptozotocin-induced diabetic model assessed as protection from atherogenicity at 20 mg/kg, po qd for 30 days relative to control. In kind it is functional.
Test [6] deals with Rattus norvegicus. Nature of the test: Antihyperglycemic activity in Wistar albino rat streptozotocin-induced diabetic model assessed as reduction of blood glucose level at 20 mg/kg, po after 2 hrs (reference value: 386.66 +/- 17.5 mg/dl). In kind it is functional.
Test [7] deals with Rattus norvegicus. Nature of the test: Antihyperlipidemic activity in Wistar albino rat streptozotocin-induced diabetic model assessed as reduction of serum triglyceride level at 20 mg/kg, po qd for 30 days. Format: functional, organism-based. The arrangement: dose 20 mg/kg.
Test [8] concerns Rattus norvegicus. As to the kind of experiment: Antihyperglycemic activity in Wistar albino rat streptozotocin-induced diabetic model assessed as reduction of fasting blood glucose level at 20 mg/kg, po qd measured on day 15 (reference value: 404.2 +/- 29.15 mg/dl). Format: functional.
The test system of test [9] is Rattus norvegicus. Nature of the test: Renalprotective activity in Wistar albino rat assessed as protection against streptozotocin-induced increase in creatinine level in blood at 20 mg/kg, po qd for 30 days. In kind it is functional.
Test [10] has as its system Rattus norvegicus. As to the kind of experiment: Antihyperglycemic activity in Wistar albino rat streptozotocin-induced diabetic model assessed as increase of body weight at 20 mg/kg, po qd measured on day 15 (reference value: -30.3%). In kind it is functional.
Test [11] concerns Rattus norvegicus. As to the kind of experiment: Antihyperlipidemic activity in Wistar albino rat streptozotocin-induced diabetic model assessed as increase of serum HDL-cholesterol level at 20 mg/kg, po qd for 30 days. Format: functional, organism-based. The arrangement: dose 20 mg/kg.
The subject of test [12] is Rattus norvegicus. Nature of the test: Antihyperlipidemic activity in Wistar albino rat streptozotocin-induced diabetic model assessed as reduction of serum total cholesterol level at 20 mg/kg, po qd for 30 days. In kind it is functional, organism-based. The arrangement: dose 20 mg/kg.
For test [13], the system named is Rattus norvegicus. Nature of the test: Antihyperglycemic activity in Wistar albino rat streptozotocin-induced diabetic model assessed as reduction of fasting blood glucose level at 20 mg/kg, po qd measured on day 30 relative to control. In kind it is functional.
The test system of test [14] is Rattus norvegicus. As to the kind of experiment: Antihyperglycemic activity in Wistar albino rat streptozotocin-induced diabetic model assessed as reduction of blood glucose level at 20 mg/kg, po after 1 hr (reference value: 389.16 +/- 19 mg/dl). In kind it is functional.
In test [15] the test system is Rattus norvegicus. Nature of the test: Antihyperglycemic activity in Wistar albino rat streptozotocin-induced diabetic model assessed as reduction of blood glucose level at 20 mg/kg, po after 5 hrs (reference value: 372.2 +/- 16.6 mg/dl). In kind it is functional.
In test [16] the test system is Rattus norvegicus. As to the kind of experiment: Renalprotective activity in Wistar albino rat assessed as protection against streptozotocin-induced increase in urea level in blood at 20 mg/kg, po qd for 30 days. Format: functional.
The test system of test [17] is Rattus norvegicus. As to the kind of experiment: Antihyperglycemic activity in Wistar albino rat streptozotocin-induced diabetic model assessed as reduction of blood glucose level at 20 mg/kg, po after 6 hrs (reference value: 372.5 +/- 15.6 mg/dl). Format: functional.
Test [18] concerns Rattus norvegicus. As to the kind of experiment: Antihyperglycemic activity in Wistar albino rat streptozotocin-induced diabetic model assessed as reduction of fasting blood glucose level at 20 mg/kg, po qd measured on day 1 (reference value: 416.4 +/- 24.2 mg/dl). Format: functional.

Active and inactive are the calls of the source. No cut-off for these calls is given here.

For the compound `COc1ccc(Cl)cc1C(=O)NCCc1ccc(S(=O)(=O)NC(=O)NC2CCCCC2)cc1` [GLYBURIDE], the outcome in the test on Rattus norvegicus [1], in the test on Rattus norvegicus [3], with Rattus norvegicus [7], in the test with Rattus norvegicus [11] and in the test with Rattus norvegicus [12] was Active. Besides, the Activity in the test with Rattus norvegicus [2] was 197.6 mg/dL; with Rattus norvegicus [4] it was 213.3 mg/dL; with Rattus norvegicus [5], 55.5%; with Rattus norvegicus [6], 237 mg/dL; in the test with Rattus norvegicus [8], 204 mg/dL; with Rattus norvegicus [9], 0.425 mg/dL. The Activity with Rattus norvegicus [10] was -10%; in the test with Rattus norvegicus [13], 188.1 mg/dL; in the test with Rattus norvegicus [14] it was 243.5 mg/dL; with Rattus norvegicus [15], 188.1 mg/dL; in the test with Rattus norvegicus [16], 49.1 mg/dL; with Rattus norvegicus [17], 206 mg/dL. Further, the Activity in the test with Rattus norvegicus [18] was 356 mg/dL.

The values above are taken from ChEMBL document CHEMBL2412969, “Antihyperglycemic and antihyperlipidemic activities of 2-(4-[(2-hydroxybenzyl) amino]-phenyl amino-methyl)-phenol in STZ induced diabetic rats” (Eur J Med Chem, 2013).
